Experimental data: patent US10471025B2, “Compositions for use in treating parkinson's disease and related disorders” (Technophage, Investigação E Desenvolvimento Em …, priority 2015, dated 2019)
Where two headings read alike, the source gives them in different places.

Columns and labels:
[1] = tested on: 6-OHDA treated zebrafish larvae; assay: Locomotor behavior rescue (total distance moved, number of jumps) in 6-OHDA zebrafish PD model; assay type: in vivo; details: for Effective concentration / peak, small range plot: phenotype recovery, total distance moved
Excerpt: To model Parkinson ̆s disease (PD), a neurotoxin 6-OHDA (6-hyroxydopamine) based method was used in zebrafish and in mice. In this model, 6-OHDA-lesions induce motor manifestations in zebrafish and in mice, such as reduced locomotor ability, and the loss of dopaminergic neurons. Based on the 6-OHDA PD zebrafish model, compounds from a small molecules library were screened for rescue of the parkinsonian phenotype (Example 1, see below).
The screen was based on both the recovery of impaired locomotor behavior and dopaminergic neuronal loss.
Values were normalized for the mean of disease state in each experiment (disease=1). Each plot contains data from 3 independent experiments with a total of 24 larvae. As a control, zebrafish were treated with only the vehicle, ascorbic acid.
For these experiments, Tubingen (TU) wild-type zebrafish, a specific strain of wild-type zebrafish, were used.

[2] = tested on: 6-OHDA treated zebrafish larvae; assay: Rescue of Tyrosine hydroxylase (TH)-positive dopaminergic neurons in 6-OHDA zebrafish larvae; assay type: in vivo; details: for Neurorescue: TH+ neurons at optimal dose, p; for Neuroprotective effect / recovery of TH+ neurons: at the optimal concentration of each molecule
Experimental: The 7 candidates also were tested in terms of rescue of dopaminergic neurons positive for Tyrosine hydroxylase (Th) in the substancia nigra pars compacta of the test animals. […] Results were normalized for healthy control values (healthy control=100% of neurons). As a control, zebrafish were treated with only the vehicle, ascorbic acid. ‘6-OHDA_ represents results in zebrafish receiving no treatment.
FIGS. 6E-6G show representative Z-projections of confocal stacks of whole-mount anti-TH immunohistochemistry in 6 days post-fertilization (dpf) of zebrafish larvae (age of the fish) control (FIG. 6E), 6-OHDA (FIG. 6F), and tapentadol treated-larvae (FIG. 6G).

[3] = tested on: 6-OHDA treated zebrafish larvae; assay: Freezing (duration of freezing periods, light/dark stimulus) in 6-OHDA zebrafish larvae; assay type: in vivo; details: tapentadol 48.5, stavudine 50, nabumetone 0.91 μM; L-Dopa treatment
Experimental: In the zebrafish model, the locomotor impairment was measured and related with bradykinesia in patients. Tests included evaluating ‘freezing_ in response to a light/dark stimulus. 6-OHDA induced larvae had fewer freezing episodes but spent longer periods in the frozen state. In previous studies, the duration of freezing episodes has been analyzed in PD patients. […] Nonetheless, it is an inhibitor of the neuronal dopamine transporter and since 6-OHDA needs DAT to enter the neuron and induce the disease, methylphenidate may be a false positive.
As FIGS. 9B-9C show, freezing recovery was tested using 7 candidate molecules at optimal concentrations, in an exemplary experiment with n=8 fish, and methylphenidate and amantadine at 25 ? M.

6-OHDA mouse model [4] = assay: Cylinder test, 6-OHDA mice (Example 5); assay type: in vivo; details: vs 6-OHDA group; daily i.p.
6-OHDA mouse model [5] = assay: Abnormal involuntary movements, 6-OHDA mice (Example 5); assay type: in vivo; details: mouse, in vivo
Experimental: This condition results in a range of involuntary movements that can be evaluated by video tracking analyses. […] Evaluations were performed during two independent trials, 30 and 90 minutes after treatment administration. […] Nonetheless, forelimb and orofacial involuntary movements are extremely hard to detect, and reading errors occur, considering the size of the animals. Total abnormal involuntary movements are the sum of all 4 different involuntary movements evaluated and is the parameter often reported in the literature.
As FIGS. 17A-17F show, abnormal involuntary movements were evaluated using the cylinder test 28 days post injection. […] Values mean ě SEM (n=5-8).

6-OHDA mouse model [6] = assay: Open field test, 6-OHDA mice (Example 5); assay type: in vivo; details: 9 days post lesion, vs 6-OHDA group
Experimental: Open field testing evaluates mainly spontaneous activity. […] Four different parameters were recorded: maximum velocity (FIGS. 18A, 19A, and 20A), total distance moved (FIGS. 18B, 19B, and 20B), mean velocity (FIGS. 18C, 19C, and 20C), and latency to first reach the walls (FIGS. 18D, 19D, and 20D). All parameters were determined by the analysis of a 5 minute video, recorded 30 minutes after therapeutic administration. Values mean ě SEM (n=3-8).
For total distance moved (FIGS. 18B, 19B, and 20B) and mean velocity (FIGS. 18C, 19C, and 20C), an hour video also was analyzed for an animal per group, to evaluate the effect of the drug with time. For these analyses, a 5 minute video prior to therapeutic administration also was taken. […] Ethovision V10 system was used for making the videos for analysis.

[7] = in water; cited from earlier work
rat = details: rat, cited from earlier work
[8] = tested on: 6-OHDA treated zebrafish larvae; assay: LD50 / lethality in the disease context of the zebrafish model; details: 6-OHDA disease-induced zebrafish larvae
[9] = tested on: 6-OHDA treated zebrafish larvae; assay: Co-administration with L-Dopa, total distance 6-OHDA larvae move; assay type: in vivo; details: total distance; L-Dopa 250 or 125 μM
[10] = sc; cited from earlier work
[11] = in vivo, cited from earlier work

Structure (SMILES)	Optimal concentration ([1]; behavioral experiments and TH+ cell counts) [µM]	Effective concentration / peak, small range plot [1] [µM]	Neurorescue [2]	Neuroprotective effect / recovery of TH+ neurons [2]	Neuroprotection of TH+ neurons ([2]; where the disease is less severe (sig *), preliminary)	Duration of freezing periods, recovery vs 6-OHDA treated larvae [3]	Cylinder test: number of rearings (6-OHDA mouse model [4])	Cylinder test: percentage of animals with tremor (6-OHDA mouse model [4])	Cylinder test: percentage of contralateral paw use (6-OHDA mouse model [4])	Induction of abnormal involuntary movements (6-OHDA mouse model [5])	Open field: latency to first reach the walls (6-OHDA mouse model [6])	Solubility [7] [mg/ml in]	LD50 (rat; in vivo, po) [mg/kg]	LD50 [8]	Effect of co-administration with L-Dopa on locomotor recovery [9]	LD50 (rat) [mg/kg]	Effective rat dose [10] [mg/kg/day]	Oral bioavailability ([11]; po) [%]	Half-life [11] [h]
N[C@@H](Cc1ccc(O)c(O)c1)C(=O)O [L-Dopa, Levodopa]	250	100	no	does not induce the recovery of TH+ neurons	can be neuroprotective	no recovery	no difference	motor recovery was observed	motor recovery was observed	induced these involuntary movements	did not show motor improvement	3.3	1780	>5 mM					
C#CCN[C@@H]1CCc2ccccc21 [Rasagiline]		25	confirmed P < 0.11	confirmed								53		187.5 | M	increased effect	300	0.8	35	1.5 to 3.5
